{"source": "ChEMBL document CHEMBL3885881", "about": "“DrugMatrix”", "organism": "Rattus norvegicus", "assay": "DrugMatrix - Regimen: Daily Repeat", "format": "toxicity, organism-based, Sprague-Dawley", "design": "regimen Daily Repeat, gender Male, age 6-8 weeks", "conditions": "in vivo, po, 2500 mg/kg, route oral GAVAGE, dose level High, vehicle .5 % CMC; for ABSOLUTE BASOPHIL / ABSOLUTE EOSINOPHIL / ABSOLUTE LYMPHOCYTE / ABSOLUTE MONOCYTE / ABSOLUTE SEGMENTED NEUTROPHIL / BASOPHIL / EOSINOPHIL / ERYTHROCYTE COUNT / HEMATOCRIT / HEMOGLOBIN / LEUKOCYTE COUNT / LYMPHOCYTE / MEAN CORPUSCULAR HEMOGLOBIN / MEAN CORPUSCULAR HEMOGLOBIN CONCENTRATION / MEAN CORPUSCULAR VOLUME / MONOCYTE / NEUTROPHIL / NUCLEATED RED BLOOD CELLS / PLATELET COUNT: tissue Blood; for ALANINE AMINOTRANSFERASE / ALBUMIN / ASPARTATE AMINOTRANSFERASE / BLOOD UREA NITROGEN / CARBON DIOXIDE / CHLORIDE / CREATINE PHOSPHOKINASE / CREATININE / GLUCOSE / LACTATE DEHYDROGENASE / LIPASE / PHOSPHORUS / POTASSIUM / SODIUM / TOTAL BILIRUBIN / TOTAL PROTEIN: tissue Plasma", "data": [{"compound": "CC1=C(C(=O)O)N2C(=O)[C@@H](NC(=O)[C@H](N)c3ccccc3)[C@H]2SC1", "note": "[CEPHALEXIN ANHYDROUS]", "values": [{"measurement": "ABSOLUTE BASOPHIL", "setting": "72 h, time 3 day", "result": 0, "unit": "CELLS/uL"}, {"measurement": "ABSOLUTE EOSINOPHIL", "setting": "72 h, time 3 day", "result": 47.67, "unit": "CELLS/uL"}, {"measurement": "ABSOLUTE LYMPHOCYTE", "setting": "72 h, time 3 day", "result": 14295, "unit": "CELLS/uL"}, {"measurement": "ABSOLUTE MONOCYTE", "setting": "72 h, time 3 day", "result": 55, "unit": "CELLS/uL"}, {"measurement": "ABSOLUTE SEGMENTED NEUTROPHIL", "setting": "72 h, time 3 day", "result": 435.67, "unit": "CELLS/uL"}, {"measurement": "BASOPHIL", "setting": "72 h, time 3 day", "result": 0, "unit": "%"}, {"measurement": "EOSINOPHIL", "setting": "72 h, time 3 day", "result": 0.33, "unit": "%"}, {"measurement": "ERYTHROCYTE COUNT", "setting": "72 h, time 3 day", "result": 5.55, "unit": "x10E6/uL"}, {"measurement": "HEMATOCRIT", "setting": "72 h, time 3 day", "result": 35.7, "unit": "%"}, {"measurement": "HEMOGLOBIN", "setting": "72 h, time 3 day", "result": 14, "unit": "G/DL"}, {"measurement": "LEUKOCYTE COUNT", "setting": "72 h, time 3 day", "result": 14.83, "unit": "x10E3/uL"}, {"measurement": "LYMPHOCYTE", "setting": "72 h, time 3 day", "result": 96.33, "unit": "%"}, {"measurement": "MEAN CORPUSCULAR HEMOGLOBIN", "setting": "72 h, time 3 day", "result": 25.23, "unit": "pg"}, {"measurement": "MEAN CORPUSCULAR HEMOGLOBIN CONCENTRATION", "setting": "72 h, time 3 day", "result": 39.2, "unit": "G/DL"}, {"measurement": "MEAN CORPUSCULAR VOLUME", "setting": "72 h, time 3 day", "result": 64.3, "unit": "fL"}, {"measurement": "MONOCYTE", "setting": "72 h, time 3 day", "result": 0.33, "unit": "%"}, {"measurement": "NEUTROPHIL", "setting": "72 h, time 3 day", "result": 3, "unit": "%"}, {"measurement": "NUCLEATED RED BLOOD CELLS", "setting": "72 h, time 3 day", "result": "0 /100WBC"}, {"measurement": "PLATELET COUNT", "setting": "72 h, time 3 day", "result": 1231, "unit": "x10E3/uL"}, {"measurement": "ALANINE AMINOTRANSFERASE", "setting": "72 h, time 3 day", "result": 67.33, "unit": "u/L"}, {"measurement": "ALBUMIN", "setting": "72 h, time 3 day", "result": 3.93, "unit": "G/DL"}, {"measurement": "ASPARTATE AMINOTRANSFERASE", "setting": "72 h, time 3 day", "result": 82.67, "unit": "u/L"}, {"measurement": "BLOOD UREA NITROGEN", "setting": "72 h, time 3 day", "result": 16, "unit": "mg/dL"}, {"measurement": "CARBON DIOXIDE", "setting": "72 h, time 3 day", "result": 31.67, "unit": "mmol/L"}, {"measurement": "CHLORIDE", "setting": "72 h, time 3 day", "result": 100.33, "unit": "MEQ/L"}, {"measurement": "CREATINE PHOSPHOKINASE", "setting": "72 h, time 3 day", "result": 209, "unit": "u/L"}, {"measurement": "CREATININE", "setting": "72 h, time 3 day", "result": 0.17, "unit": "mg/dL"}, {"measurement": "GLUCOSE", "setting": "72 h, time 3 day", "result": 140, "unit": "mg/dL"}, {"measurement": "LACTATE DEHYDROGENASE", "setting": "72 h, time 3 day", "result": 154.67, "unit": "u/L"}, {"measurement": "LIPASE", "setting": "72 h, time 3 day", "result": 9, "unit": "u/L"}, {"measurement": "PHOSPHORUS", "setting": "72 h, time 3 day", "result": 10.93, "unit": "mg/dL"}, {"measurement": "POTASSIUM", "setting": "72 h, time 3 day", "result": 6.36, "unit": "MEQ/L"}, {"measurement": "SODIUM", "setting": "72 h, time 3 day", "result": 145.43, "unit": "MEQ/L"}, {"measurement": "TOTAL BILIRUBIN", "setting": "72 h, time 3 day", "result": 0.2, "unit": "mg/dL"}, {"measurement": "TOTAL PROTEIN", "setting": "72 h, time 3 day", "result": 5.67, "unit": "G/DL"}, {"measurement": "ABSOLUTE BASOPHIL", "setting": "120 h, time 5 day", "result": 0, "unit": "CELLS/uL"}, {"measurement": "ABSOLUTE EOSINOPHIL", "setting": "120 h, time 5 day", "result": 48.67, "unit": "CELLS/uL"}, {"measurement": "ABSOLUTE LYMPHOCYTE", "setting": "120 h, time 5 day", "result": 11635.33, "unit": "CELLS/uL"}, {"measurement": "ABSOLUTE MONOCYTE", "setting": "120 h, time 5 day", "result": 0, "unit": "CELLS/uL"}, {"measurement": "ABSOLUTE SEGMENTED NEUTROPHIL", "setting": "120 h, time 5 day", "result": 2649.33, "unit": "CELLS/uL"}, {"measurement": "BASOPHIL", "setting": "120 h, time 5 day", "result": 0, "unit": "%"}, {"measurement": "EOSINOPHIL", "setting": "120 h, time 5 day", "result": 0.33, "unit": "%"}, {"measurement": "ERYTHROCYTE COUNT", "setting": "120 h, time 5 day", "result": 5.85, "unit": "x10E6/uL"}, {"measurement": "HEMATOCRIT", "setting": "120 h, time 5 day", "result": 35.6, "unit": "%"}, {"measurement": "HEMOGLOBIN", "setting": "120 h, time 5 day", "result": 13.87, "unit": "G/DL"}, {"measurement": "LEUKOCYTE COUNT", "setting": "120 h, time 5 day", "result": 14.33, "unit": "x10E3/uL"}, {"measurement": "LYMPHOCYTE", "setting": "120 h, time 5 day", "result": 81.67, "unit": "%"}, {"measurement": "MEAN CORPUSCULAR HEMOGLOBIN", "setting": "120 h, time 5 day", "result": 23.8, "unit": "pg"}, {"measurement": "MEAN CORPUSCULAR HEMOGLOBIN CONCENTRATION", "setting": "120 h, time 5 day", "result": 38.93, "unit": "G/DL"}, {"measurement": "MEAN CORPUSCULAR VOLUME", "setting": "120 h, time 5 day", "result": 61.07, "unit": "fL"}, {"measurement": "MONOCYTE", "setting": "120 h, time 5 day", "result": 0, "unit": "%"}, {"measurement": "NEUTROPHIL", "setting": "120 h, time 5 day", "result": 18, "unit": "%"}, {"measurement": "NUCLEATED RED BLOOD CELLS", "setting": "120 h, time 5 day", "result": "0 /100WBC"}, {"measurement": "PLATELET COUNT", "setting": "120 h, time 5 day", "result": 1275.33, "unit": "x10E3/uL"}, {"measurement": "ALANINE AMINOTRANSFERASE", "setting": "120 h, time 5 day", "result": 101.33, "unit": "u/L"}, {"measurement": "ALBUMIN", "setting": "120 h, time 5 day", "result": 4.23, "unit": "G/DL"}, {"measurement": "ASPARTATE AMINOTRANSFERASE", "setting": "120 h, time 5 day", "result": 94.67, "unit": "u/L"}, {"measurement": "BLOOD UREA NITROGEN", "setting": "120 h, time 5 day", "result": 18.33, "unit": "mg/dL"}, {"measurement": "CARBON DIOXIDE", "setting": "120 h, time 5 day", "result": 28, "unit": "mmol/L"}, {"measurement": "CHLORIDE", "setting": "120 h, time 5 day", "result": 105.33, "unit": "MEQ/L"}, {"measurement": "CREATINE PHOSPHOKINASE", "setting": "120 h, time 5 day", "result": 302, "unit": "u/L"}, {"measurement": "CREATININE", "setting": "120 h, time 5 day", "result": 0.24, "unit": "mg/dL"}, {"measurement": "GLUCOSE", "setting": "120 h, time 5 day", "result": 174.67, "unit": "mg/dL"}, {"measurement": "LACTATE DEHYDROGENASE", "setting": "120 h, time 5 day", "result": 98.67, "unit": "u/L"}, {"measurement": "LIPASE", "setting": "120 h, time 5 day", "result": 9.67, "unit": "u/L"}, {"measurement": "PHOSPHORUS", "setting": "120 h, time 5 day", "result": 11.77, "unit": "mg/dL"}, {"measurement": "POTASSIUM", "setting": "120 h, time 5 day", "result": 5.92, "unit": "MEQ/L"}, {"measurement": "SODIUM", "setting": "120 h, time 5 day", "result": 150.03, "unit": "MEQ/L"}, {"measurement": "TOTAL BILIRUBIN", "setting": "120 h, time 5 day", "result": 0.17, "unit": "mg/dL"}, {"measurement": "TOTAL PROTEIN", "setting": "120 h, time 5 day", "result": 5.97, "unit": "G/DL"}]}]}
